Drawing on US20230312587A1, “PTERIDINONE COMPOUNDS AND USES THEREOF” (Vertex Pharmaceutical Incorporated, priority 2018, published 2023), this text covers IC50 for 12 compounds.

In the assay the test system is β-catenin-TCF-mediated reporter transcription activity in Colo 205 cells. Put plainly: Colo 205 reporter assay (TCF/LEF luciferase). It counts as cell-based. The following applies: Homo sapiens, COLO 205, 5 h, Colo 205 TCF/LEF luciferase reporter, five hours after addition of compound; read-out: TCF reporter Colo205 IC50. The method, boiled down: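 Luciferase signal from a TCF/LEF-driven reporter, stably integrated in Colo 205 colon cancer cells, was measured 5 h after compound addition.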
A general note: In a reporter assay the amount or activity of a reporter protein is the signal.

For orientation: IC50 means the point on the concentration scale where inhibition reaches its midpoint.

Bounds are passed on as bounds.

On to `Cc1cc(C(=O)N2CC(Nc3nc(C)c4c(n3)N(C)[C@@H](C(C)C)C(=O)N4)C2)on1` [Compound 620, (S)-7-isopropyl-4,8-dimethyl-2-((1-(3-methylisoxazole-5-carbonyl)azetidin-3-yl)amino)-7,8-dihydropteridin-6(5H)-one], for which the IC50 is not below 5000 nM.
With `Cc1nc(NC2CN(C(=O)c3ccc(C(F)(F)F)o3)C2)nc2c1NC(=O)[C@H](C(C)C)N2C` [Compound 621, (S)-7-isopropyl-4,8-dimethyl-2-((1-(5-(trifluoromethyl)furan-2-carbonyl)azetidin-3-yl)amino)-7,8-dihydropteridin-6(5H)-one], the IC50 was in the range of 300 to 1000 nM.
As for `Cc1nc(NC2CN(C(=O)c3ccc(C(F)(F)F)cc3)C2)nc2c1NC(=O)[C@H](C(C)C)N2C` [Compound 622, (S)-7-isopropyl-4,8-dimethyl-2-((1-(4-(trifluoromethyl)benzoyl)azetidin-3-yl)amino)-7,8-dihydropteridin-6(5H)-one], the 50% inhibitory concentration (IC50) was less than 300 nM.
The result for `Cc1nc(NC2CN(C(=O)CC3CC4CCC3C4)C2)nc2c1NC(=O)[C@H](C(C)C)N2C` (stereo partly drawn) [Compound 623, (7S)-2-((1-(2-(bicyclo[2.2.1]heptan-2-yl)acetyl)azetidin-3-yl)amino)-7-isopropyl-4,8-dimethyl-7,8-dihydropteridin-6(5H)-one] reads 300 to 1000 nM; that for `Cc1nc(N[C@H]2CCc3c2cnn3Cc2ccc(C(F)(F)F)nc2)nc2c1NC(=O)[C@H](C)N2C` [Compound 624, (7S)-4,7,8-trimethyl-2-(((S)-1-((6-(trifluoromethyl)pyridin-3-yl)methyl)-1,4,5,6-tetrahydrocyclopenta[c]pyrazol-4-yl)amino)-7,8-dihydropteridin-6(5H)-one], not below 5000 nM.
Take `Cc1nc(N[C@@H]2CCc3c2cnn3Cc2ccc(C(F)(F)F)nc2)nc2c1NC(=O)[C@H](C)N2C` [Compound 625, (7S)-4,7,8-trimethyl-2-(((R)-1-((6-(trifluoromethyl)pyridin-3-yl)methyl)-1,4,5,6-tetrahydrocyclopenta[c]pyrazol-4-yl)amino)-7,8-dihydropteridin-6(5H)-one]: the half-inhibitory concentration (IC50) was not below 5000 nM.
The result for `Cc1nc(NC2CN(C(=O)Cc3ccc(F)c(F)c3)C2)nc2c1NC(=O)[C@H](C(C)C)N2C` [Compound 626, (S)-2-((1-(2-(3,4-difluorophenyl)acetyl)azetidin-3-yl)amino)-7-isopropyl-4,8-dimethyl-7,8-dihydropteridin-6(5H)-one] reads less than 300 nM; that for `Cc1nc(NC2CN(C(=O)[C@H](C)c3ccccc3)C2)nc2c1NC(=O)[C@H](C(C)C)N2C` [Compound 627, (S)-7-isopropyl-4,8-dimethyl-2-((1-((R)-2-phenylpropanoyl)azetidin-3-yl)amino)-7,8-dihydropteridin-6(5H)-one], 1000 to 5000 nM; that for `Cc1nc(CC(=O)N2CC(Nc3nc(C)c4c(n3)N(C)[C@@H](C(C)C)C(=O)N4)C2)c(C)s1` [Compound 628, (S)-2-((1-(2-(2,5-dimethylthiazol-4-yl)acetyl)azetidin-3-yl)amino)-7-isopropyl-4,8-dimethyl-7,8-dihydropteridin-6(5H)-one], not below 5000 nM.
With `Cc1nc(NC2CN(C(=O)Cc3cc(F)cc(F)c3)C2)nc2c1NC(=O)[C@H](C(C)C)N2C` [Compound 629, (S)-2-((1-(2-(3,5-difluorophenyl)acetyl)azetidin-3-yl)amino)-7-isopropyl-4,8-dimethyl-7,8-dihydropteridin-6(5H)-one], the IC50 is less than 300 nM.
`Cc1nc(NC2CN(C(=O)c3csc(Cl)n3)C2)nc2c1NC(=O)[C@H](C(C)C)N2C` [Compound 630, (S)-2-((1-(2-chlorothiazole-4-carbonyl)azetidin-3-yl)amino)-7-isopropyl-4,8-dimethyl-7,8-dihydropteridin-6(5H)-one]: the IC50 was 1000 to 5000 nM.
Consider `Cc1nc(NC2CN(C(=O)c3cnccn3)C2)nc2c1NC(=O)[C@H](C(C)C)N2C` [Compound 631, (S)-7-isopropyl-4,8-dimethyl-2-((1-(pyrazine-2-carbonyl)azetidin-3-yl)amino)-7,8-dihydropteridin-6(5H)-one], for which the IC50 is not below 5000 nM.
